Our source for the IC50 values is US9763957B2, “Autotaxin inhibitors” (Novartis AG, priority 2013, dated 2017).

The target of this experiment is Recombinant human ATX (Homo sapiens (Human), UniProt Q13822). The experiment is described as follows: ATX inhibition assay (choline release, Amplex Red fluorescence). In kind it is biochemical. As to conditions: ATX 10 nM, LPC 18:1 10 μM, 37° C., 20 min pre-incubation; mean of n≧2. Put shortly: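 Activity was taken from the slope of resorufin fluorescence (530/590 nm, read every 2 min for 40 min at 37 °C) produced by choline liberated from 10 μM oleoyl LPC.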
A word on the IC50: it is the point on the concentration scale where inhibition reaches its midpoint. As to `Cc1nnn(Cc2cc(Cl)ccc2/C=C/C(=O)N2CCN(c3ccn(C)n3)C[C@H]2C)n1` [Example 49.21, (R,E)-3-(4-Chloro-2-((5-methyl-2H-tetrazol-2-yl)methyl)phenyl)-1-(2-methyl-4-(1-methyl-1H-pyrazol-3-yl)piperazin-1-yl)prop-2-en-1-one], the IC50 was found to be 0.016 µM.

For `CCNC(=O)COC1CCCN(C(=O)/C=C/c2ccc(Cl)cc2Cn2nnc(C)n2)C1` (stereo not shown) [Example 49.22, (E)-2-((1-(3-(4-Chloro-2-((5-methyl-2H-tetrazol-2-yl)methyl)phenyl)acryloyl)piperidin-3-yl)oxy)-N-ethylacetamide], the IC50 was 0.11 µM.

On to `COC(=O)C1COCCN1C(=O)/C=C/c1ccc(Cl)cc1Cn1nnc(C)n1` (stereo not shown) [Example 49.23, (E)-Methyl 4-(3-(4-Chloro-2-((5-methyl-2H-tetrazol-2-yl)methyl)phenyl)acryloyl)morpholine-3-carboxylate], for which the IC50 amounted to 0.078 µM.

Regarding `COCC1CCN(C(=O)/C=C/c2ccc(Cl)cc2Cn2nnc(C)n2)CC1` [Example 49.24, (E)-3-(4-Chloro-2-((5-methyl-2H-tetrazol-2-yl)methyl)phenyl)-1-(4-(methoxymethyl)piperidin-1-yl)prop-2-en-1-one], the IC50 came to 0.045 µM. As for `Cc1nnn(Cc2cc(Cl)ccc2/C=C/C(=O)N2CCCN(c3ncccn3)CC2)n1` [Example 49.25, (E)-3-(4-Chloro-2-((5-methyl-2H-tetrazol-2-yl)methyl)phenyl)-1-(4-(pyrimidin-2-yl)-1,4-diazepan-1-yl)prop-2-en-1-one], the IC50 was found to be 0.01 µM. Then `CC(=O)N1CCCN(C(=O)/C=C/c2ccc(Cl)cc2Cn2nnc(C)n2)CC1` [Example 49.26, (E)-1-(4-Acetyl-1,4-diazepan-1-yl)-3-(4-chloro-2-((5-methyl-2H-tetrazol-2-yl)methyl)phenyl)prop-2-en-1-one], with 0.16 µM; and `COC(=O)C1SCCN1C(=O)/C=C/c1ccc(Cl)cc1Cn1nnc(C)n1` (stereo not shown) [Example 49.27, (E)-Methyl 3-(3-(4-chloro-2-((5-methyl-2H-tetrazol-2-yl)methyl)phenyl)acryloyl)thiazolidine-2-carboxylate], with 0.11 µM; and `Cc1nnn(Cc2cc(Cl)ccc2/C=C/C(=O)N2CCN(c3ncccc3C#N)CC2)n1` [Example 49.28, (E)-2-(4-(3-(4-Chloro-2-((5-methyl-2H-tetrazol-2-yl)methyl)phenyl)acryloyl)piperazin-1-yl)nicotinonitrile], with 0.01 µM. As for `Cc1nnn(Cc2cc(Cl)ccc2/C=C/C(=O)N2CCN(c3ncccc3C(=O)N3CCCC3)CC2)n1` [Example 49.29, (E)-3-(4-Chloro-2-((5-methyl-2H-tetrazol-2-yl)methyl)phenyl)-1-(4-(3-(pyrrolidine-1-carbonyl)pyridin-2-yl)piperazin-1-yl)prop-2-en-1-one], the IC50 is 0.078 µM. Then `CCCNC(=O)COC1CCN(C(=O)/C=C/c2ccc(Cl)cc2Cn2nnc(C)n2)CC1` [Example 49.30, (E)-2-((1-(3-(4-Chloro-2-((5-methyl-2H-tetrazol-2-yl)methyl)phenyl)acryloyl)piperidin-4-yl)oxy)-N-propylacetamide], with 0.052 µM; and `Cc1nnn(Cc2cc(C(F)(F)F)ccc2/C=C/C(=O)N2CCC(C(=O)O)CC2)n1` [Example 51, (E)-1-(3-(2-((5-Methyl-2H-tetrazol-2-yl)methyl)-4-(trifluoromethyl)phenyl)acryloyl)piperidine-4-carboxylic acid], with 0.077 µM. `Cc1nnn(Cc2cc(C(F)F)ccc2/C=C/C(=O)N2CCC(c3nnc(C)o3)CC2)n1` [Example 52, (E)-3-(4-(Difluoromethyl)-2-((5-methyl-2H-tetrazol-2-yl)methy)phenyl)-1-(4-(5-methyl-1,3,4-oxadiazol-2-yl)piperidin-1-yl)prop-2-en-1-one]: the IC50 stood at 0.017 µM. Then `Cc1nnn(Cc2cc(C(F)(F)F)ccc2/C=C/C(=O)N2CCN(Cc3cnn(C)c3)CC2)n1` [Example 53, (E)-1-(4-((1-Methyl-1H-pyrazol-4-yl)methyl)piperazin-1-yl)-3-(2-((5-methyl-2H-tetrazol-2-yl)methyl)-4-(trifluoromethyl)phenyl)prop-2-en-1-one], with 0.002 µM.

For the molecule `Cc1nnn(Cc2cc(OC(F)(F)F)ccc2/C=C/C(=O)N2CCC(c3nnc(C)o3)CC2)n1` [Example 54, (E)-1-(4-(5-Methyl-1,3,4-oxadiazol-2-yl)piperidin-1-yl)-3-(2-((5-methyl-2H-tetrazol-2-yl)methyl)-4-(trifluoromethoxy)phenyl)prop-2-en-1-one], the IC50 was 0.0089 µM.

With `Cc1nnn(Cc2cc(C(F)F)ccc2/C=C/C(=O)N2CCC(c3noc(C)n3)CC2)n1` [Example 55, (E)-3-(4-(Difluoromethyl)-2-((5-methyl-2H-tetrazol-2-yl)methy)phenyl)-1-(4-(5-methyl-1,2,4-oxadiazol-3-yl)piperidin-1-yl)prop-2-en-1-one], the IC50 amounted to 0.008 µM. In the case of `Cc1nnn(Cc2cc(OC(F)(F)F)ccc2/C=C/C(=O)N2CCC(Cc3nnc(C)o3)CC2)n1` [Example 56, (E)-1-(4-((5-Methyl-1,3,4-oxadiazol-2-yl)methyl)piperidin-1-yl)-3-(2-((5-methyl-2H-tetrazol-2-yl)methyl)-4-(trifluoromethoxy)phenyl)prop-2-en-1-one] it was 0.012 µM; in that of `Cc1nnn(Cc2cc(C(F)(F)F)ccc2/C=C/C(=O)N2CCC(c3nnc(C)o3)CC2)n1` [Example 57, (E)-1-(4-(5-Methyl-1,3,4-oxadiazol-2-yl)piperidin-1-yl)-3-(2-((5-methyl-2H-tetrazol-2-yl)methyl)-4-(trifluoromethyl)phenyl)prop-2-en-1-one], 0.008 µM.

Consider `Cc1nnn(Cc2cc(OC(F)F)ccc2/C=C/C(=O)N2CCC(Cc3nnc(C)o3)CC2)n1` [Example 58, (E)-3-(4-(Difluoromethoxy)-2-((5-methyl-2H-tetrazol-2-yl)methyl)phenyl)-1-(4-((5-methyl-1,3,4-oxadiazol-2-yl)methyl)piperidin-1-yl)prop-2-en-1-one], for which the IC50 was 0.053 µM. Then `Cc1nnn(Cc2cc(C(F)F)ccc2/C=C/C(=O)N2CCC(Cc3nnc(C)o3)CC2)n1` [Example 59, (E)-3-(4-(Difluoromethyl)-2-((5-methyl-2H-tetrazol-2-yl)methyl)phenyl)-1-(4-((5-methyl-1,3,4-oxadiazol-2-yl)methyl)piperidin-1-yl)prop-2-en-1-one], with 0.021 µM; and `Cc1noc(CC2CCN(C(=O)/C=C/c3ccc(C(F)(F)F)cc3Cn3nnc(C)n3)CC2)n1` [Example 60, (E)-1-(4-((3-Methyl-1,2,4-oxadiazol-5-yl)methyl)piperidin-1-yl)-3-(2-((5-methyl-2H-tetrazol-2-yl)methyl)-4-(trifluoromethyl)phenyl)prop-2-en-1-one], with 0.0088 µM; and `Cc1nnn(Cc2cc(Cl)ccc2/C=C/C(=O)N2CC3CCC2CN3Cc2coc(C)n2)n1` (stereo not shown) [Example 61, (E)-3-(4-Chloro-2-((5-methyl-2H-tetrazol-2-yl)methyl)phenyl)-1-(5-((2-methyloxazol-4-yl)methyl)-2,5-diazabicyclo[2.2.2]octan-2-yl)prop-2-en-1-one], with 0.045 µM.

Regarding `Cc1nnn(Cc2cc(Cl)ccc2/C=C/C(=O)N2CCN(Cc3coc(C)n3)C[C@H]2C)n1` [Example 62, (R,E)-3-(4-Chloro-2-((5-methyl-2H-tetrazol-2-yl)methyl)phenyl)-1-(2-methyl-4-((2-methyloxazol-4-yl)methyl)piperazin-1-yl)prop-2-en-1-one], the half-inhibitory concentration (IC50) was 0.0042 µM.
